Assays:
[1] = system: herpes labialis outbreak; conditions: 2.0% SADBE in DMSO once to arm; placebo 40 days; P=0.009; previous trial (Palli 2017); cited from earlier work
[2] = Rash (erythema) from the sensitization dose (Example 2); assay type: in vivo, human; conditions: pooled treatment groups B and C; placebo 2 of 13
Excerpt: Visit 1: Upon entering the study, patients are sensitized to squaric acid dibutyl ester (SADBE) by dipping a cotton-tipped swab in a 2% solution of SADBE in DMSO and swabbing a 1 cm^2 area on the forearm. Participants are told then to wait at least 2 weeks for their first treatment.

[3] = system: anti-HSV-1 IgG; assay: Serum anti-HSV-1 IgG quantitative levels; assay type: in vivo, human; conditions: for Level of anti-HSV1 IgG, group average: n = 12
Experimental: (§1) After a screening visit at which blood was drawn to test for IgG antibody against HSV-1 and subjects were interviewed for inclusion/exclusion criteria, selected subjects returned for blood draws on day 1. After the blood draw on day 1, subjects in group A only were dosed with SADBE. A petrolatum donut was applied with a cotton swab to form about a 1 cm diameter donut on skin on the inner aspect of the upper arm. Then a separate cotton swab was dipped in a 2% SADBE solution (w/v) in DMSO, and the swab was then used to apply about 10-20 mg of solution over about a 1 cm diameter circle within the petrolatum donut. Immediately after application, the application site was covered with TEGADERM. Subjects were advised to remove the TEGADERM and rinse and wipe the spot three hours later. The group A subjects then returned for blood draws on days 15 and 57 and were queried about adverse events on those dates.
(§2) At this study visit where blood was drawn it was tested for blood cell counts, various cytokine levels, and anti-HSV-1 IgG quantitative levels.
Anti-HSV-1 IgG was quantified in serum collected at each study visit.

[4] = system: Interleukin 2 Receptor (CD25); assay: Plasma level of Interleukin 2 Receptor (CD25); assay type: in vivo, human; conditions: for Interleukin 2 Receptor (CD25) in plasma, number of subjects with undetectable levels / Interleukin 2 Receptor (CD25) in plasma, group average: n = 12; for Interleukin 2 Receptor (CD25) in plasma, number of subjects with undetectable levels: lower limit of detection 9.19 pg/ml; for Interleukin 2 Receptor (CD25) in plasma, group average: undetectable counted as 9.19 pg/ml
Experimental: as §1, §2
All subjects had detectable IL-2 and the large majority had detectable IL-2 receptor.
For IL2R the detection limit was 9.19 pg/ml and the number of subjects who measured undetectable are listed. If a subject's IL2R was undetectable, the value of 9.19 pg/ml was used for that subject in detecting the average of the group. No subjects had undetectable IL2.

[5] = system: blood cells (B-Cells, T-Cells, helper/cytotoxic); assay: Blood cell counts of subjects; assay type: in vivo, human; conditions: for Absolute Count CD19 (B-Cells), group average / Helper/Cytotoxic Ratio, group average / Percentage CD3 (T-Cells), group average / Percentage CD19 (B-Cells), group average / T-cell to B-cell ratio, group average: n = 12
Experimental: as §1, §2
Certain blood cell count parameters were measured in the study. Differences vs. group A day 1 that are statistically significant are highlighted in bold underline.

[6] = system: peripheral blood mononuclear cells (PBMC); assay: PBMC proliferation in vitro (tritiated thymidine incorporation), Example 1; assay type: cell-based, human; conditions: for PBMC Percent proliferation, normalized all three stimuli: normalized to average of group A day 57, n = 36; for PBMC Percent proliferation: n = 12; for Percent proliferation: 2 subjects with largest and smallest day 57-day 1 difference removed, n = 10
Experimental: as §1
PBMC were isolated using SepMate PBMC isolation tubes (Stem Cell Technologies, Vancouver, Canada) and Ficoll-Paque according to the manufacturer's instructions. PBMC were isolated and suspended in negative control medium at 2 million cells/ml. PBMC suspension (100 μL) was added to 100 μL of medium in quadruplicate in 96-well plates. The plates were prepared in advance and stored at −70° C. The wells were in five different conditions in quadruplicate with these final concentrations after addition of the 100 μL of PBMC suspension in negative control medium. • 1. Negative control in medium (RPMI with glutamine and pen/strep, supplemented with 10% human A/B serum). • 2. Medium plus 16 μg/ml protein from heat-inactivated HSV-1-infected Vero cell extracts. • 3. Medium plus heat-inactivated HSV-1 cell-free virus at a final 7.5 million pfu/ml. • 4. Medium plus Candida cell extract. (Greer item number M15A50, 20,000 pnu/ml allergenic extract mixed molds Candida albicans, was diluted 1/50 into medium). • 5. Positive control, medium plus 10 μg/ml concanavalin A.
A second plate was incubated for 4 days. On the 4th day 1 μCi of tritiated thymidine in 50 μl of fresh negative control medium was added to each well. After 22 hours incubation the cells were harvested onto a filter mat and each well counted by scintillation counting for tritium incorporation into DNA as a quantitative measure of cell division.
The relative proliferation for each test condition was calculated as (avg. CPM test condition−avg. CPM negative control)/(avg. CPM positive control−avg. CPM negative control). The average CPM is the average tritium counts per minute of the 4 wells in a given test condition for a given collection point of a given patient. To calculate the normalized proliferation to all three stimuli, each data point was converted to a percentage proliferation relative to the average proliferation to that stimulus in group C or group A day 57, whichever was being compared to.
Immediately after the blood collection on day 1, the group A subjects (frequent cold sore sufferers) were treated with one dose of topical 2% SADBE in DMSO applied to the inner aspect of the subject's arm. They returned for blood collection on day 15 and day 57, two and 8 weeks after the single dose of drug. The relative proliferation of PBMC from the group A subjects collected on days 1, 15, and 57, in response to the stimuli, is shown in Table 4.

Compound: CCCCOc1c(OCCCC)c(=O)c1=O [SADBE, 3,4-Dibutoxy-3-cyclobutene-1,2-dione]
- median time to the next outbreak [1]: more than 122 days
- subjects with rash (erythema) from the sensitization dose [2]: 17 of 28
- Level of anti-HSV1 IgG, Sample/A1 ([3]; A15 / group A day 1): 1.13
- Level of anti-HSV1 IgG, Sample minus A1 ([3]; A15 minus group A day 1): 1.08 IV
- Level of anti-HSV1 IgG, Sample/A1 ([3]; A57 / group A day 1): 0.91
- Level of anti-HSV1 IgG, Sample minus A1 ([3]; A57 minus group A day 1): −0.73 IV
- change in anti-HSV1 IgG from day 15 to day 57 in group A ([3]; serum, after one SADBE dose, P<0.01): highly significant decrease
- Level of anti-HSV1 IgG, group average ([3]; serum, group A day 15 (A15)): 9.39 IV
- Level of anti-HSV1 IgG, group average ([3]; serum, group A day 57 (A57)): 7.58 IV
- Interleukin 2 Receptor (CD25) in plasma, Sample/A1 ([4]; A15 / group A day 1): 1.23
- Interleukin 2 Receptor (CD25) in plasma, Sample minus A1 ([4]; A15 minus group A day 1): 167.04 pg/mL
- Interleukin 2 Receptor (CD25) in plasma, Sample/A1 ([4]; A57 / group A day 1): 0.96
- Interleukin 2 Receptor (CD25) in plasma, Sample minus A1 ([4]; A57 minus group A day 1): -26.24 pg/mL
- Interleukin 2 Receptor (CD25) in plasma, number of subjects with undetectable levels ([4]; group A day 15 (A15)): 1
- Interleukin 2 Receptor (CD25) in plasma, group average ([4]; group A day 15 (A15)): 899.81 pg/mL
- Interleukin 2 Receptor (CD25) in plasma, number of subjects with undetectable levels ([4]; group A day 57 (A57)): 0
- Interleukin 2 Receptor (CD25) in plasma, group average ([4]; group A day 57 (A57)): 706.52 pg/mL
- Absolute Count CD19 (B-Cells), Sample/A1 ([5]; A15 / group A day 1): 0.88
- Helper/Cytotoxic Ratio, Sample/A1 ([5]; A15 / group A day 1): 0.68
- Percentage CD3 (T-Cells), Sample/A1 ([5]; A15 / group A day 1): 1.02
- Percentage CD19 (B-Cells), Sample/A1 ([5]; A15 / group A day 1): 0.83
- T-cell to B-cell ratio, Sample/A1 ([5]; A15 / group A day 1): 1.35
- Absolute Count CD19 (B-Cells), Sample minus A1 ([5]; A15 minus group A day 1): −22.63 cells/mm^3
- Helper/Cytotoxic Ratio, Sample minus A1 ([5]; A15 minus group A day 1): −1.67
- Percentage CD3 (T-Cells), Sample minus A1 ([5]; A15 minus group A day 1): 1.42%
- Percentage CD19 (B-Cells), Sample minus A1 ([5]; A15 minus group A day 1): −2.08%
- T-cell to B-cell ratio, Sample minus A1 ([5]; A15 minus group A day 1): 2.41
- Absolute Count CD19 (B-Cells), Sample/A1 ([5]; A57 / group A day 1): 0.99
- Helper/Cytotoxic Ratio, Sample/A1 ([5]; A57 / group A day 1): 0.83
- Percentage CD3 (T-Cells), Sample/A1 ([5]; A57 / group A day 1): 1.03
- Percentage CD19 (B-Cells), Sample/A1 ([5]; A57 / group A day 1): 0.95
- T-cell to B-cell ratio, Sample/A1 ([5]; A57 / group A day 1): 1.01
- Absolute Count CD19 (B-Cells), Sample minus A1 ([5]; A57 minus group A day 1): −1.85 cells/mm^3
- Helper/Cytotoxic Ratio, Sample minus A1 ([5]; A57 minus group A day 1): −0.90
- Percentage CD3 (T-Cells), Sample minus A1 ([5]; A57 minus group A day 1): 2.58%
- Percentage CD19 (B-Cells), Sample minus A1 ([5]; A57 minus group A day 1): −0.58%
- T-cell to B-cell ratio, Sample minus A1 ([5]; A57 minus group A day 1): 0.69
- Absolute Count CD19 (B-Cells), group average ([5]; group A day 15 (A15)): 171.74 cells/mm^3
- Helper/Cytotoxic Ratio, group average ([5]; group A day 15 (A15)): 3.58
- Percentage CD3 (T-Cells), group average ([5]; group A day 15 (A15)): 77.50%
- Percentage CD19 (B-Cells), group average ([5]; group A day 15 (A15)): 10.17%
- T-cell to B-cell ratio, group average ([5]; group A day 15 (A15)): 9.22
- Absolute Count CD19 (B-Cells), group average ([5]; group A day 57 (A57)): 192.52 cells/mm^3
- Helper/Cytotoxic Ratio, group average ([5]; group A day 57 (A57)): 4.35
- Percentage CD3 (T-Cells), group average ([5]; group A day 57 (A57)): 78.67%
- Percentage CD19 (B-Cells), group average ([5]; group A day 57 (A57)): 11.67%
- T-cell to B-cell ratio, group average ([5]; group A day 57 (A57)): 7.50
- PBMC Percent proliferation, normalized all three stimuli ([6]; group A Day 15): 71.65%
- Percent proliferation, normalized all three stimuli ([6]; group A Day 57, largest and smallest difference data points removed, n = 30): 99.97%
- PBMC Percent proliferation, normalized all three stimuli ([6]; group A Day 57): 99.97%
- PBMC Percent proliferation ([6]; stimulus Candida extract, group A Day 15 after one SADBE treatment): 3.33%
- Percent proliferation ([6]; stimulus Candida extract, group A Day 57): 3.19%
- PBMC Percent proliferation ([6]; stimulus Candida extract, group A Day 57 after one SADBE treatment): 7.35%
- PBMC Percent proliferation ([6]; stimulus HSV-1-infected cell extracts, group A Day 15 after one SADBE treatment): 15.43%
- Percent proliferation ([6]; stimulus HSV-1-infected cell extracts, group A Day 57): 15.78%
- PBMC Percent proliferation ([6]; stimulus HSV-1-infected cell extracts, group A Day 57 after one SADBE treatment): 16.96%
- PBMC Percent proliferation ([6]; stimulus HSV-1 virus, group A Day 15 after one SADBE treatment): 10.52%
- Percent proliferation ([6]; stimulus HSV-1 virus, group A Day 57): 12.88%
- PBMC Percent proliferation ([6]; stimulus HSV-1 virus, group A Day 57 after one SADBE treatment): 13.37%

— US11957783B2, “Topical immunosensitizers to treat viral and fungal infections” (Squarex, LLC, priority 2018, dated 2024)
